Experimental data: patent US12414924B2 (Duke University, priority 2016, dated 2025)
Substitutions are numbered along the chain they refer to. Read-outs that look alike come from different tables or passages of the source.

Key:
ERα LBD mutant Y537C [1] = target: T1, ERα LBD mutant Y537C (Homo sapiens, UniProt P03372, Y537C); test: ERE-luciferase reporter gene assay in SKBR3 cells, Y537C mutant receptor; format: cell-based; conditions: SKBR3, in presence of 1 nM 17-β estradiol, 24 h
T1 construct: expressed in transfected cells; host or cells: Caov2 ovarian carcinoma cells; SKBR3 breast adenocarcinoma cells
T1 sequence (P03372 1-595 Y537C): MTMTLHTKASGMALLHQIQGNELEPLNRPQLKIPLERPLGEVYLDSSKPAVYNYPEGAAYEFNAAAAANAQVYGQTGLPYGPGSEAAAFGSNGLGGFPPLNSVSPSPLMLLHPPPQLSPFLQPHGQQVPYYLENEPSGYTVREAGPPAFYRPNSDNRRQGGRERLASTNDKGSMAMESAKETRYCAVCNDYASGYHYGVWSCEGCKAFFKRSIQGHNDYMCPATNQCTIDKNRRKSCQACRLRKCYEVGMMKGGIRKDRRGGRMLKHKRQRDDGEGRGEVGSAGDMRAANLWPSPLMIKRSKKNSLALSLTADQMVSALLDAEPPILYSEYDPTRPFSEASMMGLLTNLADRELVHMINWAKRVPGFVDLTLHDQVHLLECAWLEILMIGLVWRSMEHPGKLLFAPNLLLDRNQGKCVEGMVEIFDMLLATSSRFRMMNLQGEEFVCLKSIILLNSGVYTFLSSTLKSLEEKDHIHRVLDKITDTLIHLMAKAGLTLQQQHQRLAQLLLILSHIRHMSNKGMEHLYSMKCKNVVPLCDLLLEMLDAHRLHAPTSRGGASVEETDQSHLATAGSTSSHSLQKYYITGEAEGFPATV
Description: (§1) ExSite mutagenesis was performed using the corresponding primers as summarized in Table 1 below on a pENTR2B ERα WT construct using Pfu ultra taq polymerase. The primers were PNK phosphorylated. Following PCR amplification, the products were digested with DpnI at 37° C. for 1 hr, followed by overnight ligation at 16° C. Ligated products were transformed into DH5α bacterial cells and grown on kanamycin resistant plates. The pENTR clones were verified by sequencing and then swapped into the pcDNA-DEST vector using the Gateway system (Invitrogen) for expression analysis.
(§2) Caov2 ovarian carcinoma cells were grown in RPMI-1640 media (Gibco) supplemented with 8% Fetal Bovine Serum (FBS), Sodium Pyruvate (NaPyr) and non-essential amino acids (NEAA) and passaged every 2-3 days. SKBR3 breast adenocarcinoma cells were grown in DMEM media (Gibco) supplemented with 8% Fetal Bovine Serum (FBS), Sodium Pyruvate (NaPyr) and non-essential amino acids (NEAA) and passaged every 2-3 days. Cells were switched into a phenol-red free RPMI-1640 media supplemented with 8% charcoal stripped fetal bovine serum (CFS), NaPyr, and NEAA one day before plating for experiment. Cells were then plated in 96-well plates for experiment in the phenol red-free media an additional day before transfection.
(§3) The plots include data from five independent experiments and each value is an average of triplicates from each experiment. […]

[2] = PEARL trial, cited from earlier work
wild-type (WT) ERα [3] = target: T2, wild-type (WT) ERα (Homo sapiens, UniProt P03372); test: ERE-luciferase reporter gene assay in Caov2 cells, wild-type receptor; format: cell-based; conditions: Caov2, in presence of 1 nM 17-β estradiol, 24 h
T2 construct: expressed in transfected cells; host or cells: Caov2 ovarian carcinoma cells; SKBR3 breast adenocarcinoma cells
T2 sequence (P03372 1-595): T1 sequence (P03372 1-595 Y537C) with C537Y
Description: as §1, §2, §3

wild-type (WT) ERα [4] = target: T2, wild-type (WT) ERα; test: ERE-luciferase reporter gene assay in SKBR3 cells, wild-type receptor; format: cell-based; conditions: SKBR3, in presence of 1 nM 17-β estradiol, 24 h
Description: as §1, §2, §3

ERα LBD mutant Y537N = target: T3, ERα LBD mutant Y537N (Homo sapiens, UniProt P03372, Y537N); test: ERE-luciferase reporter gene assay in Caov2 cells, Y537N mutant receptor; format: cell-based; conditions: Caov2, in presence of 1 nM 17-β estradiol, 24 h
T3 construct: expressed in transfected cells; host or cells: Caov2 ovarian carcinoma cells; SKBR3 breast adenocarcinoma cells
T3 sequence (P03372 1-595 Y537N): T1 sequence (P03372 1-595 Y537C) with C537N
Description: as §1, §2, §3

ERα LBD mutant Y537C [5] = target: T1, ERα LBD mutant Y537C; test: ERE-luciferase reporter gene assay in Caov2 cells, Y537C mutant receptor; format: cell-based; conditions: Caov2, in presence of 1 nM 17-β estradiol, 24 h
Description: as §1, §2, §3

[6] = Reported Cmax in blood at doses used in prior clinical trials; format: in vivo; conditions: human, read-out: Converted (M) Cmax
Excerpt: See Maximov et al., Current ClinicalPharmacology 8(2): 135-155 (2013). […] See Assessment Report for Fablyn, 2009 (EMA). […] See Gardner et al., J Clin Pharmacol 46(1): 52-58 (2006).

## Oc1ccc2c(c1)CC[C@H](c1ccccc1)[C@@H]2c1ccc(OCCN2CCCC2)cc1 [Lasofoxifene]
ERα LBD mutant Y537C [1]
  IC90: 5900 pM
[2]; placebo-controlled
  risk of osteoporosis: reduce the risk of osteoporosis
[2]; post-menopausal women with osteoporosis
  risk of breast cancer: reduced the risk of breast cancer in post-menopausal women with osteoporosis
wild-type (WT) ERα [3]
  IC90: 6.68 pM
wild-type (WT) ERα [4]
  IC90: 3300 pM
ERα LBD mutant Y537N
  IC90: 745 pM
ERα LBD mutant Y537C [5]
  IC90: 204 pM
[6]; 0.5 mg dose
  Cmax: 9e-09 M
[6]; 1 mg dose
  Cmax: 1.55e-08 M
